Patent US11613533B2, “Compounds useful for inhibiting RET kinase” (Eli Lilly and Company, priority 2020, dated 2023)
Changes are numbered by the printed parent chain.

Tests used:
[1] = target: T1, KIF5B-RET WT in HEK293 cells (Homo sapiens, UniProt P07949); assay: RET cell assay (In-Cell Western, phospho-RET Y1062), wildtype; type: cell-based; conditions: HEK293, doxycycline-induced KIF5B-RET WT, 1 hr compound treatment; read-out: EC50, inhibition of intracellular autophosphorylation of RET at tyrosine 1062, wildtype cells
T1 construct: expressed in transfected cells; host or cells: HEK293; the other entry of the earlier key: KIF5B (P33176, Kinesin-1 heavy chain)
T1 sequence (P07949 713-1063 limits assumed): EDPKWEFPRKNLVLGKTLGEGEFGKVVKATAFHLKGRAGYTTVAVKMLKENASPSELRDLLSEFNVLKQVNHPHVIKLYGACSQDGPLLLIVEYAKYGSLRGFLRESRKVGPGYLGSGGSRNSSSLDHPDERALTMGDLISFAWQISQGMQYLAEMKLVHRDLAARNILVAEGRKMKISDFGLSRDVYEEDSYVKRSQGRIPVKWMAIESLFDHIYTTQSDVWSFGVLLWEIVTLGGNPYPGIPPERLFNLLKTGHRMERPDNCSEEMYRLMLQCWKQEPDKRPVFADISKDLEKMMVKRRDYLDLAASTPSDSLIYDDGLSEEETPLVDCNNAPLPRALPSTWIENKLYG
Description: (§1) Compounds of formulas (I), (II), and (III) are screened for their ability to inhibit the intracellular autophosphorylation of RET at tyrosine 1062 as detected by In-Cell Western. HEK293 cells containing a doxycycline-inducible plasmid for inducible expression of KIF5B-RET WT and RET mutant forms V804M and G810S are seeded at 25,000 cells/well into black poly-D-lysine pre-coated 384-well plates (Corning, Catalog No. 356697). Expression of KIF5B-RET is induced with doxycycline at 1 μg/mL and cells are incubated at 37° C. overnight. Compounds are prepared in a threefold serial dilution in DMSO before further diluting 1:100 in media prior to the addition to the cells (0.1% final DMSO concentration). Compound treatment is performed for 1 hr at 37° C. followed by fixation of cells with 4% formaldehyde for 20 min at RT and cell permeabilisation with ice-cold MeOH for 10 min at RT. Cells are incubated with Intercept® blocking buffer (Li—COR, Catalogue No. 927-70010) for 1 hr at RT. Incubation with primary antibodies against human phospho-RET (Y1062) (R&D, Catalogue No. AF5009, 1/250 dilution) and human glyceraldehyde-3-phosphate dehydrogenase (clone 6C5, Merck, Catalog No. MAB374, 1/1000 dilution) are performed overnight at 4° C. Incubation with secondary antibodies IRDye® 800CW goat anti-rabbit IgG (Li—COR, Catalogue No. 926-32211, 1/1000 dilution) and IRDye® 680CW goat anti-mouse IgG (Li—COR, Catalogue No. 926-68070, 1/1000 dilution) are performed for 1 hr at RT. All antibody dilutions are done in Intercept® blocking buffer containing 0.05% Tween20. After washing cells with PBS-T (Cell Signaling technology, Catalogue No. 9809), the images are acquired on a Li—COR Odyssey LCx at 700 and 800 nm. Percent of DMSO control is calculated with 100% signal referring to control conditions containing no compound (0.4% DMSO only) and 0% signal represented by conditions containing control compound. The % of DMSO control values are fit to a 4 parameter logistic curve, and the determined EC50 value is defined as the estimated concentration of inhibitor at the inflexion point of the fitted curve.

[2] = target: T2, KIF5B-RET mutant form G810S in HEK293 cells (Homo sapiens, UniProt P07949, G810S); assay: RET cell assay (In-Cell Western, phospho-RET Y1062), G810S; type: cell-based; conditions: HEK293, doxycycline-induced KIF5B-RET G810S, 1 hr compound treatment; read-out: EC50, inhibition of intracellular autophosphorylation of RET at tyrosine 1062, G810S cells
T2 construct: expressed in transfected cells; host or cells: HEK293; the other entry of the earlier key: KIF5B (P33176, Kinesin-1 heavy chain)
T2 sequence (P07949 713-1063 G810S limits assumed): T1 sequence (P07949 713-1063 limits assumed) with G98S
Description: as §1

Structure (SMILES)	EC50 [1] [nM]	EC50 [2] [nM]
CC(C(=O)Nc1cc(C(C)(C)C(F)(F)F)no1)c1ccc(-c2nn(C(C)C)c(N)c2C(N)=O)cn1 (single isomer, unassigned; isomer 2) [Example 90, 5-Amino-1-isopropyl-3-[6-[1-methyl-2-oxo-2-[[3-(2,2,2-trifluoro-1,1-dimethyl-ethyl)isoxazol-5-yl]amino]ethyl]-3-pyridyl]pyrazole-4-carboxamide, Isomer 2]	< 100	< 100
CC(C(=O)Nc1cc(C(C)(C)C(F)(F)F)on1)c1ccc(-c2nn(C(C)C)c(N)c2C(N)=O)nc1 (single isomer, unassigned; isomer 2) [Example 64, 5-Amino-1-isopropyl-3-[5-(1-[[5-(1,1,1-trifluoro-yl)-1,2-oxazol-3-2-methylpropan-2-yl]carbamoyl]ethyl)pyridin-2-yl]pyrazole-4-carboxamide, Isomer 2]	< 100	< 100
CC(C(=O)Nc1cc(C(C)(C)C(F)(F)F)on1)c1ccc(-c2nn(C(C)C)c(N)c2C(N)=O)cc1 (single isomer, unassigned; isomer 1) [Example 81, 5-Amino-1-isopropyl-3-[4-(1-[[5-(1,1,1-trifluoro-2-methylpropan-2-yl)-1,2-oxazol-3-yl]carbamoyl]ethyl)phenyl]pyrazole-4-carboxamide, Isomer 1]	< 100	< 100
CC(C(=O)Nc1cc(C(C)(C)C(F)(F)F)no1)c1ccc(-c2nn(C(C)C)c(N)c2C(N)=O)cc1 (single isomer, unassigned; isomer 1) [Example 17, 5-Amino-1-isopropyl-3-[4-(1-[[3-(1,1,1-trifluoro-2-methylpropan-2-yl)-1,2-oxazol-5-yl]carbamoyl]ethyl)phenyl]pyrazole-4-carboxamide, Isomer 1]	< 100	< 100
CC(C(=O)Nc1cc(-c2ccc(Cl)cc2Cl)no1)c1ccc(-c2nn(C(C)C)c(N)c2C(N)=O)cn1 (single isomer, unassigned; isomer 2) [Example 94, 5-Amino-1-isopropyl-3-[6-[2-[[3-(2,4-dichlorophenyl)isoxazol-5-yl]amino]-1-methyl-2-oxo-ethyl]-3-pyridyl]pyrazole-4-carboxamide, Isomer 2]	< 100	< 100
CC(C(=O)Nc1cc(C2CC(C)(C)C2)no1)c1ccc(-c2nn(C(C)C)c(N)c2C(N)=O)cc1 (single isomer, unassigned; isomer 1) [Example 98, 5-Amino-3-[4-[2-[[3-(3,3-dimethylcyclobutyl)isoxazol-5-yl]amino]-1-methyl-2-oxo-ethyl]phenyl]-1-isopropyl-pyrazole-4-carboxamide, Isomer 1]	< 100	< 100
CC(C(=O)Nc1cc(C(C)(C)C(C)(F)F)on1)c1ccc(-c2nn(C(C)C)c(N)c2C(N)=O)nc1 (single isomer, unassigned; isomer 2) [Example 70, 5-Amino-3-[5-(1-[[5-(3,3-difluoro-2-methylbutan-2-yl)-1,2-oxazol-3-yl]carbamoyl]ethyl)pyridin-2-yl]-1-isopropylpyrazole-4-carboxamide, Isomer 2]	< 100	< 100
CC(C(=O)Nc1cc(-c2ccc(Cl)cc2Cl)no1)c1ccc(-c2nn(C(C)C)c(N)c2C(N)=O)cc1 (single isomer, unassigned; isomer 1) [Example 45, 5-Amino-3-[4-(1-[[3-(2,4-dichlorophenyl)-1,2-oxazol-5-yl]carbamoyl]ethyl)phenyl]-1-isopropylpyrazole-4-carboxamide, Isomer 1]	< 100	< 100

The remaining lines, values ahead:

EC50 [1] [nM]	EC50 [2] [nM]	Structure (SMILES)
< 100	< 100	CCC(C)(C)c1cc(NC(=O)C(C)c2ccc(-c3nn(C(C)C)c(N)c3C(N)=O)cc2)no1 (single isomer, unassigned; isomer 2) [Example 52, 5-Amino-1-isopropyl-3-[4-(1-[[5-(2-methylbutan-2-yl)-1,2-oxazol-3-yl]carbamoyl]ethyl)phenyl]pyrazole-4-carboxamide, Isomer 2]
< 100	< 100	CCC(C)(C)c1cc(NC(=O)C(C)c2ccc(-c3nn(C(C)C)c(N)c3C(N)=O)cc2)on1 (single isomer, unassigned; isomer 1) [Example 15, 5-Amino-1-isopropyl-3-[4-(1-[[3-(2-methylbutan-2-yl)-1,2-oxazol-5-yl]carbamoyl]ethyl)phenyl]pyrazole-4-carboxamide, Isomer 1]
< 100	< 100	CC(C(=O)Nc1cc(C(C)(C)C)sn1)c1ccc(-c2nn(C(C)C)c(N)c2C(N)=O)cc1 (single isomer, unassigned; isomer 2) [Example 80, 5-Amino-3-(4-[1-[(5-tert-butyl-1,2-thiazol-3-yl)carbamoyl]ethyl]phenyl)-1-isopropylpyrazole-4-carboxamide, isomer 2]
< 100	< 100	CC(C(=O)Nc1cc(C(C)(C)CC(F)(F)F)on1)c1ccc(-c2nn(C(C)C)c(N)c2C(N)=O)nc1 (single isomer, unassigned; isomer 2) [Example 68, 5-Amino-1-isopropyl-3-(5-(1-oxo-1-((5-(4,4,4-trifluoro-2-methylbutan-2-yl)isoxazol-3-yl)amino)propan-2-yl)pyridin-2-yl)-1H-pyrazole-4-carboxamide, Isomer 2]
< 100	< 100	CC(C(=O)Nc1cc(CC(C)(C)C)no1)c1ccc(-c2nn(C(C)C)c(N)c2C(N)=O)cc1 (single isomer, unassigned; isomer 1) [Example 1, 5-Amino-3-[4-(1-[[3-(2,2-dimethylpropyl)-1,2-oxazol-5-yl]carbamoyl]ethyl)phenyl]-1-isopropylpyrazole-4-carboxamide, Isomer 1]
< 100	< 100	CC(C(=O)Nc1cc(C2(C)CC2)no1)c1ccc(-c2nn(C(C)C)c(N)c2C(N)=O)cc1 (single isomer, unassigned; isomer 1) [Example 35, 5-Amino-1-isopropyl-3-[4-(1-[[3-(1-methylcyclopropyl)-1,2-oxazol-5-yl]carbamoyl]ethyl)phenyl]pyrazole-4-carboxamide, Isomer 1]
< 100	< 100	CCC(C)(C)c1cc(NC(=O)C(C)c2ccc(-c3nn(C(C)C)c(N)c3C(N)=O)nc2)no1 (single isomer, unassigned; isomer 2) [Example 66, 5-Amino-1-isopropyl-3-[5-(1-[[5-(2-methylbutan-2-yl)-1,2-oxazol-3-yl]carbamoyl]ethyl)pyridin-2-yl]pyrazole-4-carboxamide, Isomer 2]
< 100	< 100	CCC(C)(C)c1cc(NC(=O)C(C)c2ccc(-c3nn(C(C)C)c(N)c3C(N)=O)cn2)on1 (single isomer, unassigned; isomer 2) [Example 84, 5-Amino-1-isopropyl-3-[6-[2-[[3-(1,1-dimethylpropyl)isoxazol-5-yl]amino]-1-methyl-2-oxo-ethyl]-3-pyridyl]pyrazole-4-carboxamide, Isomer 2]
